{
  "source": "ChEMBL document CHEMBL3351284",
  "about": "“Internalization and stability of a thymidylate synthase Peptide inhibitor in ovarian cancer cells” (J Med Chem, 2014)",
  "test_system": "C13",
  "assay": "Growth inhibition of cisplatin-resistant human C13 cells at 5 uM after 72 hrs by flow-cytometric analysis",
  "assay_type": "functional, cell-based",
  "note": "Calls of active or inactive are those of the source. The rule behind the calls is not given here.",
  "data": [
    {"smiles": "O=c1[nH]cc(F)c(=O)[nH]1", "values": [
      {"measurement": "growth inhibition (GI)", "result": "Active"}
    ]}
  ]
}
